Data as given in patent publication US20090203667A1, “PENTADIENAMIDE DERIVATIVES” (Kyowa Hakko Kirin Co., Ltd., priority 2006, published 2009).
Structures can show the parent of a compound that is named as a salt.

Legend:
[1] = target: T1, vanilloid receptor (TRPV1) (Rattus norvegicus, UniProt O35433); assay: [3H]Resiniferatoxin ([3H]RTX) binding experiment using rat spinal cord; details: rat spinal cord membrane specimen, 37° C., 60 minutes; read-out: IC50 of [3H]RTX specific binding
T1 construct: The spinal cord was extirpated from an SPF/VAF rat; from tissue; host or cells: rat spinal cord membrane specimen (SPF/VAF rat, Charles River Laboratories Japan Inc.)
T1 sequence (O35433 whole entry): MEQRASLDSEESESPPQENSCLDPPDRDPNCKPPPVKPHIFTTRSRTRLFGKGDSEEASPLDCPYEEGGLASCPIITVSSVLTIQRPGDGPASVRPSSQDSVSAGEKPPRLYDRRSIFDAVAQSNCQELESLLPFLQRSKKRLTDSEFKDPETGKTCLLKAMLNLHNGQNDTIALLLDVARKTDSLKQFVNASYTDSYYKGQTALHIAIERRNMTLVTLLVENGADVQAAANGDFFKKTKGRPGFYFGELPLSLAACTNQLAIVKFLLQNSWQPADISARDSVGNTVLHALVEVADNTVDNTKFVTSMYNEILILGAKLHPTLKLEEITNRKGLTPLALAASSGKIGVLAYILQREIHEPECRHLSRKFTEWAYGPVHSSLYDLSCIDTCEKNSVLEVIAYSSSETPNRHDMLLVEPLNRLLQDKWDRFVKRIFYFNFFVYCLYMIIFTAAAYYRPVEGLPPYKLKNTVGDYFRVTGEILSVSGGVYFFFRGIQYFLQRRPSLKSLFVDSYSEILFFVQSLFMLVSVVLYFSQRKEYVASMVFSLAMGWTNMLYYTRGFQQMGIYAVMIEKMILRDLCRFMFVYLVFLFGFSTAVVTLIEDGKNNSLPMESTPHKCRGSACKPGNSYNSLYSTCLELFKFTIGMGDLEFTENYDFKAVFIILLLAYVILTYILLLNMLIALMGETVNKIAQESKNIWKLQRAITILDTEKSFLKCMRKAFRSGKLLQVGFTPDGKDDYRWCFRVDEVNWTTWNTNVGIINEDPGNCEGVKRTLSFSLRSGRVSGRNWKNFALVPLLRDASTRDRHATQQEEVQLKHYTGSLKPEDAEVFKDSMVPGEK
Experimental: [^3H]Resiniferatoxin ([^3H]RTX) Binding Experiment Using Rat Spinal Cord
The spinal cord was extirpated from an SPF/VAF rat (Charles River Laboratories Japan Inc.) and homogenized in an ice-cooled homogenization buffer (10 mmol/L HEPES/NaOH, 5 mmol/L KCl, 5.8 mmol/L NaCl, 2 mmol/L MgCl2, 0.75 mmol/L CaCl2, 12 mmol/L glucose, 137 mmol/L sucrose, pH 7.4). The resulting homogenate was centrifuged at 1000 g for 10 minutes at 4° C. The supernatant was centrifuged at 35000 g for 30 minutes at 4° C. The obtained precipitate was suspended in the homogenization buffer. The suspension was used as a tissue membrane specimen, and the protein concentration was determined using a protein assay staining solution (Bio-Rad Laboratories, US). The thus prepared specimen was stored at −80° C.
The known method [The Journal of Pharmacology and Experimental Therapeutics, 267: 728-733 (1993)] was modified and the modified method was performed. 400 μL of a membrane specimen solution (protein amount: about 50 μg) obtained by diluting the prepared specimen with an assay buffer (10 mmol/L HEPES/NaOH, 5 mmol/L KCl, 5.8 mmol/L NaCl, 2 mmol/L MgCl2, 0.75 mmol/L CaCl2, 12 mmol/L glucose, 137 mmol/L sucrose, 0.25 mg/mL bovine serum albumin, pH 7.4), 50 μL of a test compound solution, and 50 μL of [^3H]RTX (PerkinElmer Life Sciences Inc., US) were mixed and the mixture was incubated at 37° C. for 60 minutes. The reaction mixture was transferred on ice, and 50 μL of previously ice-cooled 2 mg/mL α1 acid glycoprotein (Sigma) was added thereto, and then, the mixture was centrifuged at 12000 g for 15 minutes at 4° C. A procedure in which 0.4 mL of the assay buffer was added to the obtained precipitate and the mixture was centrifuged at 12000 g for 15 minutes at 4° C. was performed twice. The precipitate obtained by the centrifugation was suspended in 0.5 mL of a 0.1 mol/L aqueous NaOH solution. 7 mL of Ultima Gold (Packard, US) was added to the suspension, and the radioactivity of the solution was measured using a liquid scintillation counter (LS6500: Beckman Coulter, Inc., US or TRI-CARB 2700TR: Packard, US). The [^3H]RTX binding amount in the presence of 0.1 μmol/L RTX was considered to be non-specific binding, and the specific binding was calculated by subtracting this value from the total amount of [^3H]RTX binding to the membrane specimen. Then, the replacement amount of the [^3H]RTX specific binding in the presence of the compound to the [^3H]RTX specific binding amount in the absence of the compound was calculated in percent. The IC50 value of the compound in this experiment was obtained from a logistic equation.
The logistic equation was fit to the following equation (equation 205 in the program) in the curve regression program XLfit (IDBS Inc.).
Y: Inhibition ratio X: Concentration of test compound

[2] = system: entrapment nerve injury rat; assay: Neuropathic pain inhibitory activity in entrapment nerve injury rat (von Frey pain threshold); assay type: in vivo; details: orally administered, dose of 20 mg/kg or less, measured after 1 hour, von Frey filaments
Description: Neuropathic Pain Inhibitory Activity of Compound in Entrapment Nerve Injury Rat
The method of Mosconi, Kruger et al. (Pain, vol. 64, pp. 37-57 (1996)) was modified partially and an entrapment nerve injury rat was produced.
By using a male Crl:CD(SD) rat, the sciatic nerve of the left hind limb was exfoliated under pentobarbital anesthesia, and the exfoliated region was covered with a polyethylene tube (trade name: Intramedic, size: PE-60, manufactured by Becton Dickinson and Company) with a length of 2 mm. On days 14 to 21 after the surgery, the rat was placed in a stainless-steel connected cage (750 mm (length)×210 mm (depth)×170 mm (height)) consisting of 5 cages connected in a row and having a mesh floor and was acclimated to the environment for at least 20 minutes, and then, the pain was evaluated.
The pain was evaluated using von Frey filaments (trade name: touch test sensory evaluator, Model number: model 58011, manufactured by Muromachi Kikai), and the results were calculated as a pain threshold. That is, by using a von Frey filament of different stimulation intensity, stimulation was given to the paw at the injured side of the entrapment nerve injury rat, and the stimulation intensity at which the paw was withdrawn was obtained. Then, the pain threshold (paw withdrawal threshold) (g) was calculated by the up down method of Dixon [Annual Review of Pharmacology and Toxicology, vol. 20, pp. 441-462 (1980)]. Incidentally, the pain threshold of a normal rat was from 10 to 12 g on an average.
In the evaluation of the test compound, a rat having a 50% pain threshold of less than 4 g was used, and the test compound was dissolved in a 0.5% aqueous methyl cellulose solution and orally administered at a dose of 5 mL/kg. After 1 hour, by using von Frey filaments, the pain threshold was measured.

With `O=C(/C=C/C=C(c1ccc(C(F)(F)F)cc1)c1ccc(C(F)(F)F)cc1)Nc1cccc2ccc(O)cc12` [Compound 10, (E)-N-(7-Hydroxynaphthalen-1-yl)-5,5-bis[4-(trifluoromethyl)phenyl]-2,4-pentadienamide] the melting point was 249 to 251 °C and the IC50 [1] was < 100 nM.

In the case of `O=C(/C=C/C=C(c1ccc(C(F)(F)F)cc1)c1ccc(C(F)(F)F)cc1)Nc1cccc2cnccc12` [Compound 11, (E)-N-(Isoquinolin-5-yl)-5,5-bis[4-(trifluoromethyl)phenyl]-2,4-pentadienamide], the melting point is reported as 164 to 166 °C and the IC50 [1] is reported as < 100 nM.

For `O=C(/C=C/C=C(c1ccc(C(F)(F)F)cc1)c1ccc(C(F)(F)F)cc1)Nc1cncc(CO)c1` [Compound 25, (E)-N-[(5-Hydroxymethyl)pyridin-3-yl]-5,5-bis[4-(trifluoromethyl)phenyl]-2,4-pentadienamide], the melting point was 255 to 257 °C and the IC50 [1] was < 100 nM.

For `O=C(/C=C/C=C(\c1ccccc1)c1ccc(C(F)(F)F)cc1)Nc1cccc2cnccc12` [Compound 59, (2E,4E)-N-(Isoquinolin-5-yl)-5-phenyl-5-[4-(trifluoromethyl)phenyl]-2,4-pentadienamide], the melting point was 114 to 115 °C and the IC50 [1] was < 100 nM.

In the case of `O=C(/C=C/C=C(/c1ccc(C(F)(F)F)cc1)c1ccco1)Nc1cccc2cnccc12` [Compound 63, (2E,4Z)-5-(Furan-2-yl)-N-(isoquinolin-5-yl)-5-[4-(trifluoromethyl)phenyl]-2,4-pentadienamide], the “pain threshold (paw withdrawal threshold)” value (from here on “pain threshold”) [2] is reported as “significantly increases the pain threshold”.

With `N#Cc1cccc(/C(=C\C=C\C(=O)Nc2cccc3cnccc23)c2ccc(C(F)(F)F)cc2)c1` [Compound 68, (2E,4Z)-5-(3-Cyanophenyl)-N-(isoquinolin-5-yl)-5-[4-(trifluoromethyl)phenyl]-2,4-pentadienamide] the melting point was 118 to 119 °C and the IC50 [1] was < 100 nM.

With `O=C(/C=C/C=C(\c1ccc(F)cc1)c1ccc(C(F)(F)F)cc1)Nc1cccc2cnccc12` [Compound 74, (2E,4Z)-5-(4-Fluorophenyl)-N-(isoquinolin-5-yl)-5-[4-(trifluoromethyl)phenyl]-2,4-pentadienamide] the melting point was 142 to 143 °C, the “pain threshold” value [2] was “significantly increases the pain threshold” and the IC50 [1] was < 100 nM.

In the case of `CCOc1ccc(/C(=C\C=C\C(=O)Nc2ccccc2C(O)CO)c2ccc(C(F)(F)F)cc2)cc1` (stereo not drawn) [Compound 163, (2E,4Z)-N-[2-(1,2-Dihydroxyethyl)phenyl]-5-(4-ethoxyphenyl)-5-[4-(trifluoromethyl)phenyl]-2,4-pentadienamide], the IC50 [1] is reported as < 100 nM.

With `CC(C)Oc1ccc(/C(=C\C=C\C(=O)Nc2cccc3[nH]ncc23)c2ccc(C(F)(F)F)cc2)cc1` [Compound 178, (2E,4Z)-N-(1H-Indazol-4-yl)-5-(4-isopropoxyphenyl)-5-[4-(trifluoromethyl)phenyl]-2,4-pentadienamide] the “pain threshold” value [2] was “significantly increases the pain threshold” and the IC50 [1] was < 100 nM.

For `Cc1cccc(/C(=C\C=C\C(=O)Nc2cccc3c2CC(O)C(=O)N3)c2ccc(C(F)(F)F)cc2)c1` (stereo not drawn) [Compound 188, (2E,4Z)-N-(3-Hydroxy-2-oxo-1,2,3,4-tetrahydroquinolin-5-yl)-5-(3-methylphenyl)-5-[4-(trifluoromethyl)phenyl]-2,4-pentadienamide], the “pain threshold” value [2] was “significantly increases the pain threshold” and the IC50 [1] was < 100 nM.

With `CC(C)(C)Oc1ccc(/C(=C\C=C\C(=O)Nc2cccc3c2CC(O)C(=O)N3)c2ccc(C(F)(F)F)cc2)cc1` (stereo not drawn) [Compound 191, (2E,4Z)-5-(4-tert-Butoxyphenyl)-N-(3-hydroxy-2-oxo-1,2,3,4-tetrahydroquinolin-5-yl)-5-[4-(trifluoromethyl)phenyl]-2,4-pentadienamide] the “pain threshold” value [2] was “significantly increases the pain threshold” and the IC50 [1] was < 100 nM.

In the case of `CC(C)Oc1ccc(/C(=C\C=C\C(=O)Nc2cccc3c2CC(O)C(=O)N3)c2ccc(C(F)(F)F)cc2)cc1` (stereo not drawn) [Compound 229, (2E,4Z)-N-(3-Hydroxy-2-oxo-1,2,3,4-tetrahydroquinolin-5-yl)-5-(4-isopropoxyphenyl)-5-[4-(trifluoromethyl)phenyl]-2,4-pentadienamide], the “pain threshold” value [2] is reported as “significantly increases the pain threshold” and the IC50 [1] is reported as < 100 nM.

With `CCOc1ccc(/C(=C\C=C\C(=O)Nc2cccc3c2CC(O)CN3)c2ccc(C(F)(F)F)cc2)cc1` (stereo not drawn) [Compound 240, (2E,4Z)-5-(4-Ethoxyphenyl)-N-(3-hydroxy-1,2,3,4-tetrahydroquinolin-5-yl)-5-[4-(trifluoromethyl)phenyl]-2,4-pentadienamide monohydrochloride] the “pain threshold” value [2] was “significantly increases the pain threshold” and the IC50 [1] was < 100 nM.

In the case of `CCOc1ccc(/C(=C\C=C\C(=O)Nc2cccc3c2CC(O)C(=O)N3)c2ccc(C(F)(F)F)cc2)cc1` (stereo not drawn) [Compound 257, (2E,4Z)-N-(3-Hydroxy-2-oxo-1,2,3,4-tetrahydroquinolin-5-yl)-5-(4-ethoxyphenyl)-5-[4-(trifluoromethyl)phenyl]-2,4-pentadienamide], the “pain threshold” value [2] is reported as “significantly increases the pain threshold” and the IC50 [1] is reported as < 100 nM.

For `CN(C)c1ccc(/C(=C\C=C\C(=O)Nc2cccc3c2CC(O)CN3)c2ccc(C(F)(F)F)cc2)cc1.Cl.Cl` (stereo not drawn) [Compound 270, (2E,4Z)-5-[4-(N,N-Dimethylamino)phenyl]-N-(3-hydroxy-1,2,3,4-tetrahydroquinolin-5-yl)-5-[4-(trifluoromethyl)phenyl]-2,4-pentadienamide Dihydrochloride], the “pain threshold” value [2] was “significantly increases the pain threshold” and the IC50 [1] was < 100 nM.

In the case of `CCOc1ccc(/C(=C\C=C\C(=O)Nc2cccc3c2CC(O)C(=O)N3)c2ccc(Cl)cc2)cc1` (stereo not drawn) [Compound 310, (2E,4E)-5-(4-Chlorophenyl)-5-(4-ethoxyphenyl)-N-(3-hydroxy-2-oxo-1,2,3,4-tetrahydroquinolin-5-yl)-2,4-pentadienamide], the “pain threshold” value [2] is reported as “significantly increases the pain threshold” and the IC50 [1] is reported as < 100 nM.

For `O=C(/C=C/C=C(\c1ccc(OC2COC2)cc1)c1ccc(C(F)(F)F)cc1)Nc1cccc2c1CC(O)C(=O)N2` (stereo not drawn) [Compound 314, (2E,4Z)-N-(3-Hydroxy-2-oxo-1,2,3,4-tetrahydroquinolin-5-yl)-5-[4-(oxetan-3-yloxy)phenyl]-5-[4-(trifluoromethyl)phenyl]-2,4-pentadienamide], the “pain threshold” value [2] was “significantly increases the pain threshold” and the IC50 [1] was < 100 nM.
